Where no end group is shown, it is not given here.
Key:
[1] = tested on: primary MDA-MB-435 breast carcinoma tumor cell suspensions; test: Ex vivo binding of phage to primary 435 tumor cell suspensions; design: species or system Human; settings: addition of synthetic peptide
Method: Several ex vivo selections were performed with 435 tumor cell suspensions prepared from MDA-MB-435 breast carcinoma xenografts grown in nude mice, as described below. Anti-mouse CD31 was used to deplete the tumor cell mixture of blood vessel endothelial cells prior to rescuing phage bound to the CD31-negative cell population. By the third ex vivo round, the phage pool bound a tumor cell suspension approximately 350-fold over control, nonrecombinant phage. The ex vivo preselected phage pool then was subjected to an in vivo selection round by injection into the tail vein of a nude mouse bearing an MDA-MB-435 tumor. Phage were then rescued from harvested xenograft tumor tissue.
Xenografts, tumor cell suspensions and ex vivo selections were performed essentially as follows. Nude Balb/c mice were subcutaneously injected with 1 x 10^6 MDA-MB-435 tumor cells to generate breast carcinoma xenografts. Human MDA-MB-435 breast carcinoma xenograft tumors were harvested 9 to 12 weeks after implantation, and tumor cell suspensions prepared using collagenase (0.5 mg/ml, Sigma).
The suspension was subjected to serial washes with 1% BSA in DME to remove unbound phage. […]

[2] = tested on: Cultured MDA-MB-435 cells; test: Cytotoxicity in cell culture, trypan blue staining; format: cell-based
Method: Cultured MDA-MB-435 cells were incubated with a control peptide (CGEKRTRGC; SEQ ID NO: 3) or with CGNKRTRGC (SEQ ID NO: 1) at 37°C for 1, 2 or 4 hours. After staining with trypan blue, which is taken up by cells that are dead or dying, the total number of cells were counted, and the percentage of trypan blue stained cells determined. […] In particular, after four hours incubation, at least 7-fold greater trypan blue uptake was evident in cell cultures incubated with peptide SEQ ID NO: 1 as compared to cultures incubated with control peptide.

normal tissues = test: Localization of fluorescein-labeled peptide in normal tissues after intravenous injection; format: in vivo, mice
Method: Several normal tissues also were studied for localization of the CGNKRTRGC (SEQ ID NO: 1) peptide.
Detection of fluorescent peptides and biotin-conjugated tomato lectin was performed as follows. Fluorescein-conjugated peptide CGNKRTRGC (SEQ ID NO: 1) was prepared as described above. The peptide (100 µg in 200 µl of PBS) was injected into the tail vein of mice bearing MDA-MB-435 breast carcinoma tumors. After 10 minutes, biotin-conjugated lycopersicon esculentum (tomato) lectin (100 µg in 200 µl of PBS; Vector; Burlingame, California) was also injected into the tail vein. After 5 minutes, the mouse was perfused through the heart with 4% paraformaldehyde. Tissues were removed and frozen in O.C.T. embedding medium (Tissue-Tek; Torrence, California). Blood vessels were visualized by detecting the tomato lectin with streptavidin-conjugated Alexa 594 (Molecular Probes; Eugene, Oregon). Green staining indicated the presence of peptide SEQ ID NO: 1, while red staining indicated the presence of tomato lectin.

[3] = tested on: MDA-MB-435 human breast carcinoma cell xenografts; test: Tumor treatment study; format: in vivo, nude mice; settings: 67 nmol intravenously twice a week; after about two weeks of treatment; Figure 8
Method: A tumor treatment study was performed using MDA-MB-435 human breast carcinoma cell xenografts prepared by subcutaneously injecting 1 x 10^6 cells in 200 µl PBS into nude mice. Mice (five per group) were treated intravenously twice a week with 67 nmol CGNKRTRGC peptide (SEQ ID NO: 1) or with PBS starting four weeks after tumor implantation. Tumor volumes were measured once a week for four weeks.

[4] = tested on: MDA-MB-435 tumor lymphatic vasculature; test: Localization in 435 tumors after intravenous injection, with blood vessel and lymphatic markers
cultured KRIB cells = test: Internalization of fluorescein-labeled peptide by cultured KRIB cells; format: cell-based, human
[5] = tested on: cultured MDA-MB-435 tumor cells; test: Internalization and subcellular localization in cultured MDA-MB-435 cells; format: cell-based, Human; settings: one to five hours at 37°C; Figure 2
Method: A fluorescein-conjugated CGNKRTRGC (SEQ ID NO: 1) peptide was utilized to further analyze cellular internalization and subcellular localization. […] Natl. Acad. Sci. 97:13003 (2000). The fluorescein-conjugated peptides were incubated with cultured MDA-MB-435 tumor cells for one to five hours at 37°C. […] Cultured 435 cells also internalized the CGNKRTRGC (SEQ ID NO: 1) phage, although the phage accumulated in the cytoplasm of the cells.

[6] = concentration of 10 µM; cited from earlier work

Substance: CGNKRTRGC [CGNKRTRGC (SEQ ID NO: 1)]
- inhibition of binding of phage displaying the same peptide sequence [1]: inhibited binding
- trypan blue uptake relative to cultures incubated with control peptide ([2]; four hours incubation, 37°C, control peptide SEQ ID NO: 3): at least 7 fold
- cytotoxic effect as compared to control peptide SEQ ID NO: 3 ([2]; later time points (1, 2 or 4 hours), Figure 7): significantly enhanced cytotoxic effect
- fluorescence in normal tissues (normal tissues): seen only in the kidney tubuli
- mean tumor volume compared to mice administered PBS alone [3]: at least several fold less
- accumulation in single cells within the tumor ([4]; fluorescein-labeled peptide): accumulated in VEGFR-3 positive single cells within the tumor
- co-localization with the macrophage marker F4/80 ([4]; mouse, in vivo): lack of co-localization

Substance: fluorescein-conjugated CGNKRTRGC (SEQ ID NO: 1) peptide: Fluorescein-conjugated CGNKRTRGC (SEQ ID NO: 1) peptide (cysteine pairing not given here; also: fluorescein-conjugated)
- internalization by cultured KRIB cells (cultured KRIB cells): internalized
- uptake and subcellular localization of fluorescein-conjugated peptide [5]: taken up by the 435 cells and translocated into the cell nucleus
- internalization and nuclear localization in vivo ([4]; Figure 5): internalized and transported into nuclei in vivo
- internalization and nuclear localization in vivo ([4]; Figure 5, listed as fluorescein-conjugated peptide (SEQ ID NO: 1)): accumulated in the nuclei lining the vessel-like structures
- co-localization with blood vessels labeled with biotin-conjugated tomato lectin ([4]; Figures 3A-C): notable lack of co-localization
- co-localization with lymphatic markers VEGFR-3 and LYVE-1 ([4]; intravenously injected, Figure 5): co-localized with VEGFR-3 and LYVE-1 staining in 435 tumor tissue
- blood vessel markers CD31 and Meca-32 on the vessels in which the substance localized ([4]; tail vein injection): negative for the CD31 and Meca-32 blood vessel markers
- localization within 435 tumor ([4]; tail vein injection): localized in vessel-like structures and in individual cells within the tumor

Substance: D(KLAKLAK)2
- mitochondrial swelling [6]: marked mitochondrial swelling
